Laboratory results taken from publication PMC8318231, “Rate-of-Kill (RoK) assays to triage large compound sets for Chagas disease drug discovery: Application to GSK Chagas Box” (PLoS Neglected Tropical Diseases, 2021).

Experiments:
[1] = system: T. cruzi Tulahuen trypomastigotes; experiment: T. cruzi trypomastigote assay (Cell Titer-Glo viability, ATP luminescence); assay type: cell-based, Trypanosoma cruzi; conditions: for Trypomastigotes pIC50 48 hours: 48 hours incubation; for Trypomastigotes pIC50 48 hours / Trypomastigotes pIC50 72 hours: pIC50 = -log10 IC50 in molar units; for Trypomastigotes pIC50 72 hours: 72 hours incubation; for 72 pIC50 (trypomastigotes, raw data of Fig 1D): 72 hours, plotted values, censored values given without sign; for 48 pIC50 / 72 pIC50: trypomastigote assay; for 48 pIC50: 48 h; for 72 pIC50: 72 h
Outline: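 Tulahuen trypomastigotes from infected LLC-MK2 culture supernatants (days 5–8) plated at 5 × 10^4 per well in DMEM/2% FBS with compound at 5 μM single-shot final or in dose response. Viability by CellTiter-Glo ATP luminescence after 10 min at room temperature, normalised to no-cell (100%) and DMSO (0%) controls.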

[2] = system: TcCYP51; conditions: formerly reported; cited from earlier work
[3] = system: T. cruzi intracellular amastigotes in H9c2 cells; experiment: Rate-of-Kill (RoK) high-content imaging assay, amastigotes per cell (AM/CELL) and curve descriptors; assay type: cell-based, Trypanosoma cruzi; parameters: key to ME_24h / ME_48h / ME_72h: % reduction in parasite burden (cidal response); t50pct_MCC50 / t50pct_Cmax: unit not given here; conditions: for ME_24h: 24h; for ME_48h: 48h; for ME_72h: 72h; for tlag_Cmax / t50pct_Cmax / t50%_Cmax: at Cmax; for ME_24h (%): maximum effect at 24 h; for ME_24h (%) / ME_48h (%) / ME_72h (%): RoK assay; for ME_48h (%): maximum effect at 48 h; for ME_72h (%): maximum effect at 72 h; for ME 24h (maximum effect at 24 hours, intracellular amastigotes): maximum percentage of parasite burden reduction reached by any concentration
Outline: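 H9c2 cardiomyocytes infected with T. cruzi trypomastigotes (MOI 8, 18 h), then compounds tested at 5 μM single shot or 11-point 1/3 dilution from 50 μM. DRAQ5-stained nuclei imaged over a time course. Amastigotes per cell normalised to infected cells at 4 h (0%) and non-infected cells (100%).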

Compound	Trypomastigotes pIC50 48 hours [1]	Trypomastigotes pIC50 72 hours [1]	CYP51 pIC50 [2]	ME_24h ([3]; figure 5)	ME_48h ([3]; figure 5)	ME_72h ([3]; figure 5)	MCCE ([3]; RoK curve descriptor)	AM/CELL NORM ([3]; Time 4, sheet figure 4 A)	AM/CELL NORM ([3]; Time 24, sheet figure 4 A)	AM/CELL NORM ([3]; Time 48, sheet figure 4 A)	tlag_Cmax [3]	t50pct_Cmax ([3]; figure 5)	tlag_Cmax ([3]; figure 5)	t50pct_MCC50 ([3]; at MCC50, figure 5)	tlag_MCC50 ([3]; at MCC50, figure 5)	MCCE ([3]; figure 5)	ME_24h (%) [3]	ME_48h (%) [3]	ME_72h (%) [3]	ME 24h (maximum effect at 24 hours, intracellular amastigotes) [3]	also measured
CC(=Cc1ccccc1)CN1CCC(=O)N(Cc2cccnc2)CC1 [TCMDC-143421]	4.7	< 4.3	7	-70.7645	-276.175	-1.901	1.9 µM	-0.3924	-98.2079	-300.018	48.0 h	72	48	72	72	1.852	-70.8%	-276.2%	-1.9%	-70.7645%	AM/CELL NORM ([3]; Time 72, sheet figure 4 A): -16.9527; MCC50 ([3]; figure 5): 50 µM
CC(C)Oc1cccc(N2CCC(C(=O)N3CCCN(C(C)C)CC3)CC2)c1.Cl [TCMDC-143432]	< 4.3	< 4.3	< 4	-31.9347	48.3783	79.9841	1.2 µM	-8.446	-20.4309	59.253	24.0 h	60	24	72	24	1.235	-31.9%	48.4%	80.0%	-15.8852%	72 pIC50 (trypomastigotes, raw data of Fig 1D) [1]: < 4.3; 48 pIC50 ([1]; figure 1A): < 4.3; 72 pIC50 ([1]; figure 1A): < 4.3; 72 pIC50 ([1]; figure 1B): < 4.3; MCC50 ([3]; RoK curve descriptor): 1.9 µM; AM/CELL NORM ([3]; Time 72, sheet figure 4 A): 56.8532; t50%_Cmax [3]: 60.0 h; t50%_MCC50 ([3]; at MCC50): 72.0 h; tlag_MCC50 ([3]; at MCC50): 24.0 h; MCC50 ([3]; figure 5, in µM): 1.852
CCN(Cc1ccncc1)Cc1ccc(NC(=O)c2cc(-c3ccc(F)cc3)n[nH]2)cc1 [TCMDC-143433]	4.9	4.5	7.1	-248.551	-140.579	30.4902	0.2 µM	7.09	-279.989	-140.579	24.0 h	72	24	72	72	0.2058	-248.6%	-140.6%	30.5%	-248.551%	AM/CELL NORM ([3]; Time 72, sheet figure 4 A): 25.9601; MCC50 ([3]; figure 5): 50 µM
COc1cccc(CCNC(=O)C(c2cn[nH]c2)N2CCN(c3ccc(Cl)cc3)CC2)c1 (stereo not drawn) [TCMDC-143434]	4.4	4.5	7.2	51.5158	102.276	117.751	0.07 µM	2.576	51.5158	102.276	4.0 h	24	4	72	24	0.06859	51.5%	102.3%	117.8%	51.5158%	MCC50 ([3]; RoK curve descriptor): 5.6 µM; AM/CELL NORM ([3]; Time 72, sheet figure 4 A): 117.751; t50%_Cmax [3]: 24.0 h; t50%_MCC50 ([3]; at MCC50): 72.0 h; tlag_MCC50 ([3]; at MCC50): 24.0 h; MCC50 ([3]; figure 5, in µM): 5.556
CC(C)c1cc(C(=O)N2CCCC(c3cc4ncccc4[nH]3)C2)on1 (stereo not drawn) [TCMDC-143439]	5.3	5.3	4.3	43.352	76.8723	68.3635	1.0 µM	3.622	43.352	76.8723	4.0 h	48	4	48	4	1.852	63.1%	82.0%	79.3%	82.7741%	72 pIC50 (trypomastigotes, raw data of Fig 1D) [1]: 5.3; 48 pIC50 ([1]; figure 1A): 5.3; 72 pIC50 ([1]; figure 1A): 5.3; 72 pIC50 ([1]; figure 1B): 5.3; MCC50 ([3]; RoK curve descriptor): 16.7 µM; AM/CELL NORM ([3]; Time 72, sheet figure 4 A): 68.3635; t50%_Cmax [3]: 48.0 h; t50%_MCC50 ([3]; at MCC50): 60.0 h; tlag_MCC50 ([3]; at MCC50): 14.0 h; MCC50 ([3]; figure 5, in µM): 16.6667
Fc1ccc(OC2CC(NCc3cccc4cn[nH]c34)C2)cc1C(F)(F)F (stereo not drawn) [TCMDC-143455]	5	5	6.9	25.577	44.8387	61.893	0.2 µM	–	–	–	24.0 h	72	24	72	24	0.2058	25.6%	44.8%	61.9%	107.523%	72 pIC50 (trypomastigotes, raw data of Fig 1D) [1]: 5; 48 pIC50 ([1]; figure 1A): 5; 72 pIC50 ([1]; figure 1A): 5; 72 pIC50 ([1]; figure 1B): 5; MCC50 ([3]; RoK curve descriptor): 5.6 µM; AM/CELL NORM ([3]; Time 4, figure 4 A): 30.3216; AM/CELL NORM ([3]; Time 24, figure 4 A): 25.577; AM/CELL NORM ([3]; Time 48, figure 4 A): 44.8387; AM/CELL NORM ([3]; Time 72, figure 4 A): 61.893; t50%_Cmax [3]: 72.0 h; t50%_MCC50 ([3]; at MCC50): 72.0 h; tlag_MCC50 ([3]; at MCC50): 24.0 h; MCC50 ([3]; figure 5, in µM): 5.556
CNc1c(C(N)=O)c(-c2ccc3scnc3c2)nn1CC(F)(F)F.O=C(O)C(F)(F)F [TCMDC-143463]	< 4.3	< 4.3	< 4	-5.4236	-24.264	4.63	0.2 µM	20.0861	-5.743	-19.2942	48.0 h	72	48	72	72	0.2058	-5.4%	-24.3%	4.6%	-5.104%	72 pIC50 (trypomastigotes, raw data of Fig 1D) [1]: < 4.3; 48 pIC50 ([1]; figure 1A): < 4.3; 72 pIC50 ([1]; figure 1A): < 4.3; 72 pIC50 ([1]; figure 1B): < 4.3; AM/CELL NORM ([3]; Time 72, sheet figure 4 A): 13.2045; MCC50 ([3]; figure 5): 50 µM
OCCCNc1nc(Nc2ccncc2)nc2ccccc12 [TCMDC-143476]	5.3	5.6	< 4	-15.4195	-2.754	-23.113	0.6 µM	-9.731	-26.5514	-22.3232	24.0 h	72	24	72	72	0.6173	-15.4%	-2.8%	-23.1%	-15.4195%	AM/CELL NORM ([3]; Time 72, sheet figure 4 A): -41.9873; MCC50 ([3]; figure 5): 50 µM
Cc1nn(C)c(Cl)c1CN(Cc1cccnc1)Cc1ccsc1 [TCMDC-143477]	< 4.3	< 4.3	7.2	-46.0078	-102.792	-13.578	0.6 µM	-6.323	-46.0078	-102.792	48.0 h	72	48	72	72	0.6173	-46.0%	-102.8%	-13.6%	-46.0078%	72 pIC50 (trypomastigotes, raw data of Fig 1D) [1]: < 4.3; 48 pIC50 ([1]; figure 1A): < 4.3; 72 pIC50 ([1]; figure 1A): < 4.3; 72 pIC50 ([1]; figure 1B): < 4.3; AM/CELL NORM ([3]; Time 72, sheet figure 4 A): -72.3369; MCC50 ([3]; figure 5): 50 µM
